Results taken from US10604514B2, “6-(5-membered heteroaryl)isoquinolin-3-yl carboxamides and preparation and use thereof” (Samumed, LLC, priority 2017, dated 2020).
Where two headings read alike, the source gives them in different places.

Assays:
[1] = tested on: Tau phosphorylation at Ser396 (pSer396), SH-SY5Y cells; assay: Tau phosphorylation at Ser396 (pSer396) in SH-SY5Y cells, ELISA/western blot; format: cell-based, human; settings: Homo sapiens; SH-SY5Y cells, overnight (16-18 h); read-out: pSer396 Tau EC50;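 further: cell lysates probed for reduced Tau pSer396 via ELISA (colorimetric) or western blot (chemiluminescence), both with one shared pSer396 antibody, EC50 for lowering phosphorylation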
[2] = tested on: SW480 colon carcinoma cells; assay: Cell viability assay (CellTiter-Glo) in SW480 cells; format: cell-based, human; settings: Homo sapiens; for EC50: 96 h, cell viability, SW480 cells, four days, CellTiter-Glo; for inhibition at 10 µM: SW480, read-out: percent inhibition at 10 μM;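 on all read-outs here: SW480 cells stably carrying an Sp5-luciferase TCF/LEF reporter, luminescent ATP signal as viability measure, DMSO-treated cells as control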
[3] = molecular target: GSK3β kinase (Homo sapiens (Human), UniProt P49841); assay: GSK3β kinase assay (Ser/Thr 09 peptide Z-lyte, FRET); format: biochemical; settings: method text calls the value IC50;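 further: Coumarin/fluorescein emission ratio converted to percent phosphorylation against unphosphorylated (0%) and phosphorylated (100%) controls, 1 h compound incubation at room temperature, 11-point threefold dilutions from 10 µM, run in duplicate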
[4] = tested on: Wnt activity (Sp5-Luc reporter in SW480 colon carcinoma cells); assay: Wnt activity screening assay (Sp5-Luc reporter gene assay); format: cell-based, human; settings: Homo sapiens; for EC50: Sp5-Luc reporter, SW480 cells, 36 to 48 hours; for inhibition at 10 µM: SW480, read-out: percent inhibition at 10 μM
Summary of the method: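 Compounds at 10 points (1:3 steps, top 10 μM, 0.1% DMSO final) were incubated 36 to 48 h at 37° C with stable Sp5-Luc SW480 reporter cells in 1% FBS medium. Luciferase luminescence was then read and expressed relative to DMSO-only cells. Four-parameter variable-slope fitting yielded EC50 values.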

[5] = tested on: IL-6; assay: IL-6 inhibition in LPS-stimulated human peripheral blood mononuclear cells (HTRF); format: cell-based; settings: Homo sapiens, PBMC; for EC50: IL-6, LPS-stimulated huPBMCs, HTRF
Summary of the method: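 EC50 from a 4-parameter fit of DMSO-normalized HTRF (665/620 nm) IL-6 signal, duplicates. Compound was added to fresh human PBMCs in 1% FBS RPMI for 2 h (top 10 μM, 3-fold, 0.25% DMSO) before 22 h stimulation with LPS at 50 ng/mL, 37 °C.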

[6] = molecular target: DYRK1A kinase (Homo sapiens (Human), UniProt Q13627); assay: DYRK1A kinase assay (Ser/Thr 18 peptide Z-lyte, FRET)
[7] = tested on: LL29 cells (primary human fibroblasts derived from IPF patients), α-smooth muscle actin; assay: Inhibition of fibrotic process: αSMA in TGF-β1-treated primary human fibroblasts from IPF patients (LL29 cells); format: cell-based; settings: Homo sapiens, Fibroblast; for EC50: 96 h, % αSMA-positive LL29 cells, TGF-β1 20 ng/mL, 4 days
Summary of the method: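 Read-out is the percentage of αSMA-positive cells by high-content imaging, excluding SYTOX green-positive dead/apoptotic cells, normalized to TGF-β1-only wells on the same plate. LL29 cells were exposed for 4 days at 37 °C to 20 ng/mL TGF-β1 plus 11-point, 2-fold compound dilutions in 0.1% DMSO.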

[8] = DYRK1A kinase, method text calls the value IC50

GSK3β kinase, sequence (P49841 whole entry): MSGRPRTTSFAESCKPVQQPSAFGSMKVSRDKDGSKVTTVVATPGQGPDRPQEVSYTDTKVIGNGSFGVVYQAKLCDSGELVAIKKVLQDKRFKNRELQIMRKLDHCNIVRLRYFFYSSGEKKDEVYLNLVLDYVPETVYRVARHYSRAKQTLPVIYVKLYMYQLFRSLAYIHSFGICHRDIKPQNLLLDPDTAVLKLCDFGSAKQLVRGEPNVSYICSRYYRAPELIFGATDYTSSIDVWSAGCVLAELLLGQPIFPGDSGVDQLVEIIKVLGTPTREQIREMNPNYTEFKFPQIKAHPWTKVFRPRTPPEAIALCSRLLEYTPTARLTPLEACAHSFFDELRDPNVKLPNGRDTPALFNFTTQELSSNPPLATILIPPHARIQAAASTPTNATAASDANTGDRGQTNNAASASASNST

Row | SMILES | EC50 [1] [nM] | EC50 [2] [nM] | EC50 [3] [nM] | EC50 [4] [nM] | EC50 [5] [nM] | EC50 [6] [nM] | EC50 [7] [nM] | inhibition at 10 µM [2] [%] | inhibition at 10 µM [4] [%] | inhibition at 10 µM ([5]; read-out: percent value in parentheses below EC50 >10) [%] | EC50 [6, 8] [nM] | inhibition at 10 µM ([7]; read-out: percent inhibition at 10 μM) [%]
1 | [2H]c1c([2H])c(C(=O)Nc2cc3cc(-c4cncn4C)ccc3cn2)c([2H])c([2H])c1C [Compound 85, 4-Methyl-N-(6-(1-methyl-1H-imidazol-5-yl)isoquinolin-3-yl)benzamide-2,3,5,6-d4] | 1400 | 487 | 847 | 233 | 1220 | 2 | 557 | – | – | – | – | –
2 | [2H]c1c([2H])c(C([2H])([2H])[2H])c([2H])c([2H])c1C(=O)Nc1cc2cc(-c3cncn3C)ccc2cn1 [Compound 86, 4-(Methyl-d3)-N-(6-(1-methyl-1H-imidazol-5-yl)isoquinolin-3-yl) benzamide-2,3,5,6-d4] | 3040 | 515 | 1740 | 350 | 2170 | 2 | 556 | – | – | – | – | –
3 | [2H]C([2H])([2H])Oc1ccc(C(=O)Nc2cc3cc(-c4cncn4C)ccc3cn2)cc1 [Compound 87, 4-(Methoxy-d3)-N-(6-(1-methyl-1H-imidazol-5-yl)isoquinolin-3-yl) benzamide] | 896 | 489 | 1450 | 214 | 1170 | 3 | 132 | – | – | – | – | –
4 | [2H]c1c([2H])c(C(=O)Nc2cc3cc(-c4cncn4C)ccc3cn2)c([2H])c([2H])c1OC([2H])([2H])[2H] [Compound 88, 4-(Methoxy-d3)-N-(6-(1-methyl-1H-imidazol-5-yl)isoquinolin-3-yl) benzamide-2,3,5,6-d4] | 16 | 480 | 1010 | 179 | 1200 | 2 | 311 | – | – | – | – | –
5 | [2H]c1c([2H])c(C(=O)Nc2cc3cc(-c4cncn4C)ccc3cn2)c([2H])c([2H])c1OC [Compound 89, 4-Methoxy-N-(6-(1-methyl-1H-imidazol-5-yl)isoquinolin-3-yl)benzamide-2,3,5,6-d4] | 594 | 480 | 533 | 155 | 1050 | 2 | 190 | – | – | – | – | –
6 | [2H]c1c([2H])c([2H])c(/C=C/C(=O)Nc2cc3cc(-c4cnc(C)n4C)ccc3cn2)c([2H])c1[2H] [Compound 90, (E)-N-(6-(1,2-Dimethyl-1H-imidazol-5-yl)isoquinolin-3-yl)-3-(phenyl-2,3,4,5,6-d5)acrylamide] | 171 | 312 | 388 | 159 | 606 | 4 | 299 | – | – | – | – | –
7 | [2H]/C(C(=O)Nc1cc2cc(-c3cnc(C)n3C)ccc2cn1)=C(/[2H])c1c([2H])c([2H])c([2H])c([2H])c1[2H] [Compound 91, (E)-N-(6-(1,2-Dimethyl-1H-imidazol-5-yl)isoquinolin-3-yl)-3-(phenyl-2,3,4,5,6-d5)acrylamide-2,3-d2] | 68 | 314 | 454 | 197 | 679 | 5 | 289 | – | – | – | – | –
8 | [2H]C([2H])(C(=O)Nc1cc2cc(-c3cnc(C)n3C)ccc2cn1)c1ccc(F)cc1 [Compound 92, N-(6-(1,2-Dimethyl-1H-imidazol-5-yl)isoquinolin-3-yl)-2-(4-fluorophenyl) acetamide-2,2-d2] | 769 | 4080 | 66 | 3140 | 3180 | 10 | 2710 | – | – | – | – | –
9 | [2H]c1c([2H])c([2H])c(/C=C/C(=O)Nc2cc3cc(-c4cncn4C)ccc3cn2)c([2H])c1[2H] [Compound 93, (E)-N-(6-(1-methyl-1H-imidazol-5-yl)isoquinolin-3-yl)-3-(phenyl-2,3,4,5,6-d5)acrylamide] | 259 | 98 | 238 | 67 | 280 | 2 | 145 | – | – | – | – | –
10 | [2H]/C(C(=O)Nc1cc2cc(-c3cncn3C)ccc2cn1)=C(/[2H])c1c([2H])c([2H])c([2H])c([2H])c1[2H] [Compound 94, (E)-N-(6-(1-Methyl-1H-imidazol-5-yl)isoquinolin-3-yl)-3-(phenyl-2,3,4,5,6-d5)acrylamide-2,3-d2] | 244 | 104 | 276 | 88 | 319 | 2 | 125 | – | – | – | – | –
11 | [2H]C([2H])(C(=O)Nc1cc2cc(-c3cncn3C)ccc2cn1)c1ccc(F)cc1 [Compound 95, 2-(4-Fluorophenyl)-N-(6-(1-methyl-1H-imidazol-5-yl)isoquinolin-3-yl) acetamide-2,2-d2] | 76 | 766 | 38 | 1070 | 339 | 4 | 276 | – | – | – | – | –
12 | Cn1cc(-c2cc(F)c3cnc(NC(=O)[C@H]4CC[C@@H](N(C)C)CC4)cc3c2)cn1 [Compound 96, cis-4-(Dimethylamino)-N-(8-fluoro-6-(1-methyl-1H-pyrazol-4-yl)isoquinolin-3-yl)cyclohexane-1-carboxamide] | > 10000 | > 10000 | 5420 | > 10000 | > 10000 | – | > 10000 | 2.3 | 0 | 3.6 | 846 | 36
13 | Cn1cc(-c2cc(F)c3cnc(NC(=O)[C@H]4CC[C@@H](N5CCOCC5)CC4)cc3c2)cn1 [Compound 97, cis-N-(8-Fluoro-6-(1-methyl-1H-pyrazol-4-yl)isoquinolin-3-yl)-4-morpholinocyclohexane-1-carboxamide] | 184 | 806 | 20 | 1470 | 365 | – | 200 | – | – | – | 14 | –
14 | Cn1cc(-c2ccc3cnc(NC(=O)[C@H]4CC[C@H](N5CCCC5)CC4)cc3c2)nn1 [Compound 99, trans-N-(6-(1-Methyl-1H-1,2,3-triazol-4-yl)isoquinolin-3-yl)-4-(pyrrolidin-1-yl)cyclohexane-1-carboxamide] | 208 | 1080 | 8 | 589 | 1360 | – | 72 | – | – | – | 4 | –
15 | Cn1cc(-c2ccc3cnc(NC(=O)[C@H]4CC[C@H](N5CCOCC5)CC4)cc3c2)nn1 [Compound 100, trans-N-(6-(1-Methyl-1H-1,2,3-triazol-4-yl)isoquinolin-3-yl)-4-morpholinocyclohexane-1-carboxamide] | 113 | 1530 | 11 | 720 | 2020 | – | 64 | – | – | – | 3 | –
16 | Cc1ncc(-c2cc(F)c3cnc(NC(=O)[C@H]4CC[C@H](C(=O)N5CCN(C)CC5)CC4)cc3c2)o1 [Compound 101, trans-N-(8-fluoro-6-(2-methyloxazol-5-yl)isoquinolin-3-yl)-4-(4-methylpiperazine-1-carbonyl)cyclohexane-1-carboxamide] | 5400 | > 10000 | 1030 | > 10000 | 3590 | – | 3070 | 18.8 | 6.3 | – | 22 | –
17 | CN1CCN(C(=O)[C@H]2CC[C@H](C(=O)Nc3cc4cc(-c5cnn(C)c5)cc(F)c4cn3)CC2)CC1 [Compound 102, trans-N-(8-Fluoro-6-(1-methyl-1H-pyrazol-4-yl)isoquinolin-3-yl)-4-(4-methylpiperazine-1-carbonyl)cyclohexane-1-carboxamide] | 2600 | 3030 | 434 | 3250 | 2920 | – | 2400 | – | – | – | 5 | –
18 | Cn1cc(-c2cc(F)c3cnc(NC(=O)[C@H]4CC[C@H](NCC(F)F)CC4)cc3c2)cn1 [Compound 103, trans-4-((2,2-Difluoroethyl)amino)-N-(8-fluoro-6-(1-methyl-1H-pyrazol-4-yl)isoquinolin-3-yl)cyclohexane-1-carboxamide] | 1300 | 6080 | 30 | 2970 | 1080 | – | 392 | – | – | – | 5 | –
